pIC50: −log10 of the molar value.
How the values were obtained:
[1] = Cytotoxicity against human A549 cells by Alamar Blue assay
[2] = Cytotoxicity against human DLD1 cells by Alamar Blue assay; assay type: functional, cell-based; conditions: DLD-1
[3] = Cytotoxicity against human LNCAP cells by Alamar Blue assay; assay type: functional, cell-based
Klebsiella aerogenes = assay: Antibacterial activity against Enterobacter aerogenes ATCC 13048 assessed as zone of inhibition at 100 ug/disk measured after 24 hrs by agar disk-diffusion method; assay type: functional; conditions: ATCC 13048, 24 h, read-out: IZ
Serratia marcescens = assay: Antibacterial activity against Serratia marcescens ATCC 25419 assessed as zone of inhibition at 100 ug/disk measured after 24 hrs by agar disk-diffusion method; assay type: functional; conditions: ATCC 25419, 24 h, read-out: IZ
Yersinia enterocolitica = assay: Antibacterial activity against Yersinia enterocolitica ATCC 23715 assessed as zone of inhibition at 100 ug/disk measured after 24 hrs by agar disk-diffusion method; assay type: functional; conditions: ATCC 23715, 24 h, read-out: IZ
[4] = Antiinflammatory activity in human neutrophils assessed as inhibition of fMLP/CB-induced superoxide anion generation by measuring superoxide dismutase-inhibitable reduction of ferricytochrome c at 10 uM preincubated for 5 mins followed by fMLP/CB-induction measured after 10 mins; assay type: functional; conditions: Neutrophil
[5] = Antiinflammatory activity in human neutrophils assessed as inhibition of fMLP/CB-induced superoxide anion generation by measuring superoxide dismutase-inhibitable reduction of ferricytochrome c at 20 uM preincubated for 5 mins followed by fMLP/CB-induction measured after 10 mins; assay type: functional; conditions: Neutrophil
[6] = Antiinflammatory activity in human neutrophils assessed as inhibition of fMLP/CB-induced elastase release at 10 uM using MeO-Suc-Ala-Ala-Pro-Val-p-nitroanilide as elastase substrate preincubated for 5 mins followed by fMLP/CB-induction; assay type: functional; conditions: Neutrophil
[7] = Antiinflammatory activity in human neutrophils assessed as inhibition of fMLP/CB-induced elastase release at 20 uM using MeO-Suc-Ala-Ala-Pro-Val-p-nitroanilide as elastase substrate preincubated for 5 mins followed by fMLP/CB-induction; assay type: functional; conditions: Neutrophil

Structure (SMILES) | pIC50 [1] | pIC50 [2] | pIC50 [3] | zone of inhibition at 100 µg/disc (Klebsiella aerogenes) [mm] | zone of inhibition at 100 µg/disc (Serratia marcescens) [mm] | zone of inhibition at 100 µg/disc (Yersinia enterocolitica) [mm] | inhibition at 10 µM [4] [%] | inhibition at 20 µM [5] [%] | inhibition at 10 µM [6] [%] | inhibition at 20 µM [7] [%]
C=C1C[C@@H](O)[C@@H](Br)C(C)(C)[C@]12CC[C@](C)(Br)[C@@H](Cl)C2 | ≤ 5.00 | ≤ 5.00 | ≤ 5.00 | 2 | 2 | 2 | 25 | 48 | 44 | 60
CC1(C)[C@H](Br)[C@H](O)C[C@@]2(CO2)[C@@]12CCC(=O)[C@@H]1O[C@@H]12 | ≤ 5.00 | ≤ 5.00 | ≤ 5.00 |  |  |  | 9 | 8 | 2 | 18
CC1=CC(=O)CC(C)(C)[C@@]12C=C/C(=C\Br)CC2 | ≤ 5.00 | ≤ 5.00 | ≤ 5.00 |  | 8 |  | 6 | 12 | 3 | 14
C=C1C[C@@H](O)[C@@H](Br)C(C)(C)[C@@]12C=C[C@](O)(C(Br)Br)CC2 | ≤ 5.00 | ≤ 5.00 | ≤ 5.00 |  | 2 | 4 | 19 | 32 | 9 | 33
CC1=CC(=O)CC(C)(C)[C@@]12C=C/C(=C/Br)CC2 | ≤ 5.00 | ≤ 5.00 | ≤ 5.00 |  |  |  | 7 | 10 | 5 | 30
CC1=CC(=O)CC(C)(C)[C@@]12C=CC(=O)CC2 | ≤ 5.00 | ≤ 5.00 | ≤ 5.00 |  |  |  | 4 | 16 | 18 | 32
CC1(C)S[C@@H]2[C@H](NC(=O)[C@H](N)c3ccccc3)C(=O)N2[C@H]1C(=O)O [AMPICILLIN] |  |  |  | 11 | 5 | 8 |  |  |  | 
C=C1C[C@@H](O)[C@@H](Br)C(C)(C)[C@@]12C=C/C(=C\Br)CC2 | ≤ 5.00 | ≤ 5.00 | ≤ 5.00 |  | 4 | 3 | 24 | 10 | 8 | 12
C=C1C[C@@H](O)[C@@H](Br)C(C)(C)[C@@]12C=C[C@](O)(CO)CC2 | ≤ 5.00 | ≤ 5.00 | ≤ 5.00 |  |  |  | 7 | 14 | 9 | 29
C=C1C[C@@H](O)[C@@H](Br)C(C)(C)[C@]12CCC(=O)[C@H]1O[C@H]12 | ≤ 5.00 | ≤ 5.00 | ≤ 5.00 |  |  |  | 6 | 6 | 3 | 14
C=C1C[C@H](O)[C@@H](Br)C(C)(C)[C@@]12C=C[C@](C)(O)CC2 [ISORIGIDOL] | ≤ 5.00 | ≤ 5.00 | ≤ 5.00 |  |  |  | 11 | 23 | 9 | 12
CO[C@@]1(C)CC[C@]2(C[C@H]1Br)C(C)=C[C@H](O)CC2(C)C | ≤ 5.00 | ≤ 5.00 | ≤ 5.00 |  |  |  | 12 | 10 | 5 | 24
Cc1ccc([C@]2(C)C[C@H](O)[C@@H](Br)C2(C)C)cc1 | ≤ 5.00 | ≤ 5.00 | ≤ 5.00 |  |  |  | 17 | 26 | 7 | 28
CC[C@H](Nc1ncnc2[nH]cnc12)c1nc2cccc(F)c2c(=O)n1-c1ccccc1 [IDELALISIB] |  |  |  |  |  |  | 103 |  | 100 | 
C=C1C[C@@H](O)[C@@H](Br)C(C)(C)[C@@]12C=C[C@@](O)(C(Br)Br)CC2 [MAILIOHYDRIN] | ≤ 5.00 | ≤ 5.00 | ≤ 5.00 | 1 | 2 | 2 | 13 | 16 | 16 | 22
COc1cccc2c1C(=O)c1c(O)c3c(c(O)c1C2=O)C[C@@](O)(C(=O)CO)C[C@@H]3O[C@H]1C[C@H](N)[C@H](O)[C@H](C)O1 [DOXORUBICIN] |  | 5.59 | 5.85 |  |  |  |  |  |  | 
CC1=C[C@H](O)CC(C)(C)[C@]12CC[C@](C)(Br)[C@H](Cl)C2 | ≤ 5.00 | ≤ 5.00 | ≤ 5.00 |  |  |  | 12 | 14 | 12 | 19
C=C1C[C@@H](O)[C@@H](Br)C(C)(C)[C@@]12C=C/C(=C/Br)CC2 | ≤ 5.00 | ≤ 5.00 | ≤ 5.00 |  |  |  | 18 | 10 | 34 | 69
C=C1CC[C@]2(C[C@@H]1O)C(=C)C[C@H](O)[C@@H](Br)C2(C)C | ≤ 5.00 | ≤ 5.00 | ≤ 5.00 |  |  |  | 10 | 14 | 5 | 24
CC1=C[C@H](O)[C@@H](Br)C(C)(C)[C@@]12C=C[C@](C)(O)CC2 | ≤ 5.00 | ≤ 5.00 | ≤ 5.00 |  |  |  | 13 | 12 | 1 | 12
C=C1C[C@@H](O)[C@@H](Br)C(C)(C)[C@@]12C=CC(=O)CC2 | ≤ 5.00 | ≤ 5.00 | ≤ 5.00 | 3 |  |  | 7 | 13 | 9 | 14

— ChEMBL document CHEMBL3867445, “Halogenated Sesquiterpenoids from the Red Alga Laurencia tristicha Collected in Taiwan” (J Nat Prod, 2016)
